# From publication PMC7731220, “Pharmacophore Modeling and 3D-QSAR Study of Indole and Isatin Derivatives as Antiamyloidogenic Agents Targeting Alzheimer’s Disease” (Molecules, 2020)
# Where two headings read alike, the source gives them in different places.
# Experiments:
# [1] = biological target: T1, tau protein (Homo sapiens, UniProt P10636); test: Tau aggregation inhibition assay in bacterial cells (thioflavin S fluorescence); format: cell-based, Escherichia coli BL21 (DE3); conditions: for inhibition at 10 µM: cell-based assay
# T1 construct: inclusions bodies (IBs) formed by tau full-length protein in bacteria; expressed in transfected cells; host or cells: Escherichia coli BL21 (DE3), plasmids pTARA and pRKT42
# Source text: The deposition of aggregates of hyperphosphorylated tau protein constitutes the intracellular neurofibrillary tangles, a major histological evidence of AD. The role of tau hyperphosphorylation and aggregation in AD has established both of them as a target for therapeutic intervention, although only N,N,N′,N′-tetramethyl-10H-phenothiazine-3,7-diaminium (TRX0237, leucomethyl-thioninium), the reduced form of methylene blue dye, acting as an inhibitor of tau aggregation, has reached the clinical phase III [26]. In recent years, some of us developed an efficient cell-based assay of tau aggregation, a simple and inexpensive method that provides a straightforward assay to evaluate the putative anti-aggregation capacity of small molecules. This method relies on the use of bacteria overexpressing amyloid-prone proteins to monitor the amyloid aggregation, thus constituting a physiologically relevant model. In particular, it exploits amyloid properties of the inclusions bodies (IBs) formed by tau full-length protein in bacteria stained by thioflavin S (ThS), a specific amyloid dye, to address the bacterial amyloid aggregation and the effect of anti-amyloid compounds in this polymerization process.
# Escherichia coli competent cells BL21 (DE3) were transformed with pTARA containing the RNA-polymerase gen of T7 phage (T7RP) under the control of the promoter PBAD and pRKT42 vector encoding four repeats of tau protein in two inserts. Because of the addition of the initiation codon ATG in front of gene, the over-expressed protein contains an additional methionine residue at its N terminus. Tau anti-aggregating activities of the target compounds were assessed in E. coli cells, as previously described. M9 minimal medium (10 mL) containing 0.5% of glucose, 100 μg/mL of ampicillin and 12.5 μg/mL of chloramphenicol was inoculated with a colony of BL21 (DE3) cells bearing the plasmids. To fresh M9 minimal medium containing 0.5% of glucose, 50 μg/mL of ampicillin, 12.5 μg/mL of chloramphenicol, and 250 µM of ThS, the volume of overnight culture necessary to get a 1:500 dilution was added. The cultures were grown at 37 °C and 250 rpm overnight until cell density reached OD600 = 0.6. A volume of 980 μL of the cultures was transferred into 1.5 mL Eppendorf tubes that contained 10 μL of a solution of the target compound in DMSO and 10 μL of arabinose at 25%, leading to a final inhibitor concentration of 10 μM. The resulting cultures were grown at 37 °C and 1400 rpm with a Thermomixer (Eppendorf, Hamburg, Germany) overnight. The same amount of DMSO without the target compound was added to the sample as a negative control (maximal amount of tau), whereas non-induced samples (in the absence of arabinose) were prepared as positive controls (absence of tau), and to assess the potential intrinsic toxicity of the target compounds. In addition, the absorbance at 600 nm of these samples was assessed to confirm the correct bacterial growth, discarding potential intrinsic toxicity of compounds. To determine the IC50 values, the same protocol was followed but only modifying the initial concentration of compounds. In order to use different final concentrations of compound, we performed a dilutions banc from a stock solution of 100 mM in […].
# ThS fluorescence and absorbance were tracked using a DTX 800 plate reader Multimode Detector equipped with a Multimode Analysis Software (Beckman-Coulter, Indianapolis, IN, USA). Filters of 430/35 and 485/20 nm were used for the excitation and emission wavelengths, respectively. 535/25 nm filters were also used for the absorbance determination. It should be stressed that ThS fluorescence normalization was carried out considering as 100% the ThS fluorescence of the bacterial cells expressing tau in the absence of compounds and 0% the ThS fluorescence of the bacterial cells non-expressing tau.
# [2] = biological target: T2, Aβ40 (Homo sapiens, UniProt P05067); test: Inhibition of Aβ40 self-aggregation (thioflavin T fluorescence, 2% HFIP); conditions: for inhibition at 100 µM: read-out: Aβ40 Aggregation Inhibition % at 100 μM
# Experimental: All the newly prepared compounds were tested in a routine in vitro assay of inhibition of Aβ40 self-aggregation [25].
# (§1) All assays were performed in 96-well plates (Greiner Bio-One, Kremsmünster, Austria) using an Infinite M1000 Pro plate reader (Tecan, Cernusco s.N., Italy). Inhibition data were obtained as mean ± SD (for single concentration points) or mean ± SEM from three independent experiments (for IC50s), using Prism (GraphPad Prism version 5.00 for Windows, GraphPad Software, San Diego, CA, USA).
# Assay of aggregation of Aβ40 (EzBiolab, Carmel, IN, USA) was performed as described [25], using 2% of 1,1,1,3,3,3-hexafluoro-2-propanol as aggregation enhancer and spectrofluorimetric detection of thioflavin T fluorescence as the probe of amyloid aggregation.
# [3] = biological target: T3, human recombinant AChE (Homo sapiens, UniProt P22303); test: biochemical; conditions: for IC50: read-out: hAChE IC50; for inhibition at 10 µM: read-out: hAChE % Inhib. at 10 μM
# T3 construct: purchased Sigma Aldrich
# Experimental: as §1
# [4] = biological target: T4, human recombinant monoamine oxidase A (Homo sapiens, UniProt P21397); test: Inhibition of monoamine oxidase A (kynuramine); format: biochemical; conditions: for inhibition at 10 µM: read-out: hMAO A % Inhib. at 10 μM; for IC50: read-out: hMAO A IC50
# T4 construct: purchased Sigma Aldrich; host or cells: baculovirus infected insect cells (microsomes)
# T4 sequence (P21397 1-527): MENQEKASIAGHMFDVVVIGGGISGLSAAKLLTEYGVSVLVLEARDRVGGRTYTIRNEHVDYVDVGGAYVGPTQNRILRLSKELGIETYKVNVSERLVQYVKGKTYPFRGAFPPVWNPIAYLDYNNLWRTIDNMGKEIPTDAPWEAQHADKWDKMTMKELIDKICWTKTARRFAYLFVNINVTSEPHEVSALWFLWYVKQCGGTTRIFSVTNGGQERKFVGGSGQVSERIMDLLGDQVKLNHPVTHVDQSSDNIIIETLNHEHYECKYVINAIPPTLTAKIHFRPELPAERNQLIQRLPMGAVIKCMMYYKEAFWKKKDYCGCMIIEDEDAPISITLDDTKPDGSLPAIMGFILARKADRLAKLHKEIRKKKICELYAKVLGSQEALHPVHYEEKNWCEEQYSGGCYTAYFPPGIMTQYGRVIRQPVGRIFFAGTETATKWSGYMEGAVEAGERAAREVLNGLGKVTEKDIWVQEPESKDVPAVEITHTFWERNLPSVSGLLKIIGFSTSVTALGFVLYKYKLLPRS
# Experimental: as §1
# (§2) Inhibition of human recombinant monoamine oxidases A (250 U/mg) and B (59 U/mg; microsomes from baculovirus infected insect cells; Sigma Aldrich) was determined as already described [48], measuring the fluorescence of 4-hydroxyquinoline produced by the oxidative deamination of substrate kynuramine.
# [5] = biological target: T5, human recombinant monoamine oxidase B (Homo sapiens, UniProt P27338); test: Inhibition of monoamine oxidase B (kynuramine); format: biochemical; conditions: for inhibition at 10 µM: read-out: hMAO B % Inhib. at 10 μM; for IC50: read-out: hMAO B IC50
# T5 construct: purchased Sigma Aldrich; host or cells: baculovirus infected insect cells (microsomes)
# T5 sequence (P27338 1-520): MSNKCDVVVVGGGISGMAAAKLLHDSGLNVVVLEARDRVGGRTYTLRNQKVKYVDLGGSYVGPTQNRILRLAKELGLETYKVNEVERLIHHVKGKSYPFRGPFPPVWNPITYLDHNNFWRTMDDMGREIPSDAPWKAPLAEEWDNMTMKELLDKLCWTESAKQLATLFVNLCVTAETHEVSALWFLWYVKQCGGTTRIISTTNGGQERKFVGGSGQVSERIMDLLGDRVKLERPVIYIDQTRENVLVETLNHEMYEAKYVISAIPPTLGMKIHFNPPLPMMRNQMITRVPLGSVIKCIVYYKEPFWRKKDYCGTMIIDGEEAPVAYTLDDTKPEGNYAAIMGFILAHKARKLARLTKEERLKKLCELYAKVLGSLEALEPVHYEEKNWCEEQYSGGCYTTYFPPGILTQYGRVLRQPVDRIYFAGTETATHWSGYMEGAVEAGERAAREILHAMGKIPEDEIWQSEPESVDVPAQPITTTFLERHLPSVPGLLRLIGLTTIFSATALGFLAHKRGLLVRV
# Experimental: as §1, §2
# [6] = biological target: T2, Aβ40; conditions: cited from earlier work
# T2 sequence (P05067 672-711 limits assumed): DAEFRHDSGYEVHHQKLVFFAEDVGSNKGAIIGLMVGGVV
# T1 sequence (P10636 other isoform, or with tags, fused parts or gaps): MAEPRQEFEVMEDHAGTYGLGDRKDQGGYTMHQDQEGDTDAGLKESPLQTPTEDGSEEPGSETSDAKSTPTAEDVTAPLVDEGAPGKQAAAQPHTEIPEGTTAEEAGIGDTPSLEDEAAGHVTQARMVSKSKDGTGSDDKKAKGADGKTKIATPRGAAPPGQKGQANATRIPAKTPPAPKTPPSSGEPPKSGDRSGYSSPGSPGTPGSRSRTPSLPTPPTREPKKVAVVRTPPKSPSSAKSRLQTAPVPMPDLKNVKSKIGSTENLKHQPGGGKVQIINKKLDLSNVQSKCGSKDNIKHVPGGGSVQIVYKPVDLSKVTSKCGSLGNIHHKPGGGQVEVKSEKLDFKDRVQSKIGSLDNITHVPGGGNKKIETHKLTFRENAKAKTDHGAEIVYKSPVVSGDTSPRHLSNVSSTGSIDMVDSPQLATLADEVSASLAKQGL
# T3 sequence (P22303 32-614): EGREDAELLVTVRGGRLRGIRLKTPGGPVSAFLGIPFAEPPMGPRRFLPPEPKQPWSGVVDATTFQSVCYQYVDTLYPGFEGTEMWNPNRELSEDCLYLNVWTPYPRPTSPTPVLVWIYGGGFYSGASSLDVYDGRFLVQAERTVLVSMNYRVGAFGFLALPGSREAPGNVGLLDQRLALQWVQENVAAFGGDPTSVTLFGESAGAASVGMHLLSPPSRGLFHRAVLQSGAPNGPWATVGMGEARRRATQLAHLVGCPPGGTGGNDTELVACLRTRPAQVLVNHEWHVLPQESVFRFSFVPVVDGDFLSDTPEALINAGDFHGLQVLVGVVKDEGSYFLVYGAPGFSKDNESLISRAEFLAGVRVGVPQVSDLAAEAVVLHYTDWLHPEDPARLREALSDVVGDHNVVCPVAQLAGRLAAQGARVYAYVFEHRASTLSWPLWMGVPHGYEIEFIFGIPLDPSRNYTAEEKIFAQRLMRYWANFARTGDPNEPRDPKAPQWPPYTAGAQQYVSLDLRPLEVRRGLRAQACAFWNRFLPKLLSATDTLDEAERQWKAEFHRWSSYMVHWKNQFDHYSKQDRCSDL
SMILES,inhibition at 10 µM [1],inhibition at 100 µM [2],inhibition at 10 µM [4],IC50 [2],inhibition at 10 µM [3],IC50 [5],also measured
"O=C1Nc2ccccc2C1=NNc1ccc(OCc2ccccc2)cc1 [Compound 8, 3-(2-(4-(Benzyloxy)phenyl)hydrazineylidene)indolin-2-one]",35 ± 2%,69 ± 3%,8 ± 3%,–,–,–,IC50 [3]: 3.9 ± 0.5 µM; inhibition at 10 µM [5]: 36 ± 4%
"COc1ccc2c(c1)C(=NNc1ccc(C(C)C)cc1)C(=O)N2CCN(C)C [Compound 18, 1-(2-(Dimethylamino)ethyl)-3-(2-(4-isopropylphenyl)hydrazineylidene)-5-methoxyindolin-2-one]",–,–,31 ± 4%,1.3 ± 0.1 µM,23 ± 1%,–,inhibition at 10 µM [5]: 47 ± 2%
"CC(C)c1ccc(NN=C2C(=O)N(Cc3ccccc3)c3ccc(O)cc32)cc1 [Compound 19, 1-Benzyl-5-hydroxy-3-(2-(4-isopropylphenyl)hydrazineylidene)indolin-2-one]",–,–,18 ± 4%,1.6 ± 0.3 µM,31 ± 1%,–,inhibition at 10 µM [5]: 46 ± 5%
"N/N=C1\C(=O)Nc2ccc([N+](=O)[O-])cc21 [Compound 3, (Z)-3-Hydrazineylidene-5-nitroindolin-2-one]",–,11 ± 3%,–,–,–,–,melting point: 217 to 219 °C
"O=C1Nc2ccccc2C1=NNc1cccc(OCc2ccccc2)c1 [Compound 6, 3-(2-(3-(Benzyloxy)phenyl)hydrazineylidene)indolin-2-one]",14 ± 2%,45 ± 6%,23 ± 5%,–,–,–,IC50 [3]: 4.2 ± 0.8 µM; inhibition at 10 µM [5]: 22 ± 4%
COc1ccc2c(c1)/C(=N/Nc1ccc(OCc3ccccc3)cc1)C(=O)N2 [Compound S34],16 ± 2%,–,–,–,–,–,Aβ40 Inhibition % at 100 μM ([6]; Table 5): 20%
"COc1ccc2c(c1)C(=O)C(=O)N2CN1CCOCC1 [Compound 13, 5-Methoxy-1-(morpholinomethyl)indoline-2,3-dione]",–,23 ± 5%,7 ± 2%,–,26 ± 1%,4.4 ± 0.1 µM,–
"Clc1ccc(NN=Cc2c[nH]c3ccccc23)cc1 [Compound 32, 3-((2-(4-Chlorophenyl)hydrazono)methyl)-1H-indole]",–,–,–,8.4 ± 0.6 µM,41 ± 5%,0.23 ± 0.03 µM,IC50 [4]: 0.34 ± 0.01 µM
"CC(C)c1ccc(NN=C2NC(=O)c3ccccc32)cc1 [Compound 38, 3-(2-(4-Isopropylphenyl)hydrazineylidene)isoindolin-1-one]",–,49 ± 5%,–,–,–,–,melting point: 186 to 187 °C
COc1ccc2c(c1)C(=O)C(=O)N2CCc1ccccc1 [Compound 11],–,–,20 ± 4%,15 ± 1 µM,47 ± 5%,2.7 ± 0.3 µM,–
"COc1ccc2c(c1)C(=NNC(=O)c1ccccc1)C(=O)N2 [Compound 26, N′-(5-Methoxy-2-oxoindolin-3-ylidene)benzhydrazide]",–,12 ± 5%,–,–,–,–,melting point: > 250 °C
"COc1ccc2[nH]cc(C=NNc3ccc4ccccc4n3)c2c1 [Compound 35, 2-(2-((5-Methoxy-1H-indol-3-yl)methylene)hydrazineyl)quinoline]",–,–,–,12 ± 2 µM,38 ± 2%,6.5 ± 0.6 µM,IC50 [4]: 3.8 ± 0.3 µM
"CN1C(=O)C(=NNc2cccc(OCc3ccccc3)c2)c2ccccc21 [Compound 7, 3-(2-(3-(Benzyloxy)phenyl)hydrazineylidene)-1-methylindolin-2-one]",19 ± 2%,–,29 ± 3%,2 ± 0.3 µM,48 ± 3%,–,inhibition at 10 µM [5]: 41 ± 1%
O=C1Nc2ccccc2C1=NN=C1C(=O)Nc2ccccc21 [Compound 4],17 ± 2%,31 ± 3%,–,–,–,–,–
"O=C1Nc2ccccc2C1=NNc1cccc2ccccc12 [Compound 23, 3-(2-(Naphthalen-1-yl)hydrazono)indolin-2-one]",–,–,–,4.8 ± 0.5 µM,40 ± 3%,5.3 ± 0.3 µM,IC50 [4]: 7.1 ± 0.3 µM
"O=C1Nc2ccccc2C1=NNc1ccccc1 [Compound 5, isatin 3-phenylhydrazone]",–,–,–,22 ± 2 µM,37 ± 1%,3.6 ± 0.7 µM,IC50 [1]: 4.6 ± 0.7 µM; selectivity for MAO A over MAO B ([4]; MAO A over MAO B): 7 fold; IC50 [4]: 0.52 ± 0.04 µM
"CN1C(=O)C(=NNc2ccc(OCc3ccccc3)cc2)c2ccccc21 [Compound 9, 3-(2-(4-(Benzyloxy)phenyl)hydrazineylidene)-1-methylindolin-2-one]",20 ± 2%,–,15 ± 3%,0.95 ± 0.04 µM,48 ± 2%,4 ± 0.4 µM,–
COc1ccc2c(c1)/C(=N/Nc1cccc(OCc3ccccc3)c1)C(=O)N2 [Compound S35],–,–,–,–,–,–,Aβ40 Inhibition % at 100 μM ([6]; Table 5): 44%; IC50 [1]: 10 ± 2 µM
O=C1Nc2ccc([N+](=O)[O-])cc2/C1=N/Nc1ccccc1 [Compound S22],15 ± 3%,–,–,–,–,–,"Aβ40 Inhibition % at 100 μM ([6]; Table 5, symbol): -^c (No inhibition at 100 μM concentration); % inhib. @ 100 µM ([6]; supplement, training set, 100 µM): -2±7%"
"CC(C)c1ccc(NN=Cc2[nH]c3ccc(Br)cc3c2Cl)cc1 [Compound 41, 5-Bromo-3-chloro-2-((2-(4-isopropylphenyl)hydrazineylidene)methyl)-1H-indole]",–,63 ± 6%,–,–,–,–,–
COc1ccc2c(c1)/C(=N/Nc1ccccc1)C(=O)N2 [Compound S23],–,–,–,–,–,–,Aβ40 Inhibition % at 100 μM ([6]; Table 5): 52%; IC50 [1]: 7.7 ± 1 µM
